Data published in paper PMC9081605, “A High-Throughput Toxicity Screen of 42 Per- and Polyfluoroalkyl Substances (PFAS) and Functional Assessment of Migration and Gene Expression in Human Placental Trophoblast Cells” (Frontiers in Toxicology, 2022).

Tested on: JEG-3 cells
Assay: Gene expression, custom NanoString code set of 46 genes
Type: cell-based, human
Method: JEG-3 cells were seeded at a density of 80,000 cells per well in six well plates and allowed to adhere overnight (24 h). The following day, media was removed and replaced with exposure media, then returned to the incubator for 24 h. The test compounds included non-cytotoxic concentrations of PFOA (0, 1, and 100 µM) and GenX (0, 3, 300 µM). These test compounds were selected a priori due to their high public health relevance. Each 6 well plate contained the three concentrations for either PFOA or GenX, with each condition in technical duplicate. Plates containing these PFOA or GenX exposure conditions were replicated three times (N = 3). After 24 h, exposure media was aspirated and cells were washed in ice cold 1xPBS, which was then aspirated. Each well received 500 µl of TRIzol reagent (Thermo Fisher Scientific, MA, United States) and cells were harvested in the TRIzol using a cell scraper. Technical duplicate wells within a plate were combined to generate a single sample of ∼1,000 µl. RNA was isolated from the resulting cellular homogenate using RNeasy Mini Kits (Qiagen, Hilden, Germany). Isolated RNA quality was validated and concentration determined using a NanoDrop 2000 (Thermo Fisher Scientific, MA, United States). 100 ng of mRNA from each sample was then analyzed using a custom gene expression code set (NanoString, Seattle, WA, United States). The custom code set included 46 genes selected for their downstream involvement in placental development (e.g., WNT4), endocrine signaling (e.g., CYP19A1), fetal growth/nutrient sensing (e.g., IGF2), inflammation (e.g., IL6), oxidative stress (e.g., SOD1, GPX1), and xenobiotic transport/metabolism (e.g., ABCG2, MRP3).
Gene expression data were quantified using the nCounter Digital Analyzer (NanoString, Seattle, WA, United States) and raw and adjusted counts were generated with nSolver (v4.0) software (NanoString, Seattle, WA, United States). Data were adjusted utilizing the manufacturer’s positive and negative experimental control probes, as well as housekeeping genes (ACTA2, ACTB, B2M, LDHA, RNA18S5, and ROLYR2L). All samples passed nSolver’s initial QA/QC controls and replicates were very well correlated with R ^2 values greater than 0.99. Adjusted data were then imported into Partek v7.0 (St. Louis, MO, United States), log2 transformed and quantile normalized for further QA/QC and statistical analyses. Genes with mRNA counts below the detection threshold of 20 were removed due to suboptimal probe hybridization (N = 2 genes for GenX; GH2 and IGFBP5). Fold change values were analyzed by ANOVA with post hoc false discovery rate adjustment (FDR) of p < 0.1. Normalized gene expression values were visualized using pheatmap with Euclidean clustering of genes and concentration groups ([Kolde and Kolde, 2015]).

Structure (SMILES): N.O=C(O)C(F)(OC(F)(F)C(F)(F)C(F)(F)F)C(F)(F)F (centres unmarked) [Ammonium perfluoro-2-methyl-3-oxahexanoate]
- 11BHSD2 gene expression, fold change over untreated control (3 µM, 24 h): -1.00
- 17BHSD1 gene expression, fold change over untreated control (3 µM, 24 h): -1.11
- AHR gene expression, fold change over untreated control (3 µM, 24 h): 1.04
- AHRR gene expression, fold change over untreated control (3 µM, 24 h): 1.18
- CAT gene expression, fold change over untreated control (3 µM, 24 h): 1.02
- CGB5 gene expression, fold change over untreated control (3 µM, 24 h): 1.08
- COX2 gene expression, fold change over untreated control (3 µM, 24 h): 1.27
- CTNNB1 gene expression, fold change over untreated control (3 µM, 24 h): 1.00
- CYP1A1 gene expression, fold change over untreated control (3 µM, 24 h): -1.22
- CYP2E1 gene expression, fold change over untreated control (3 µM, 24 h): -1.26
- CYP3A5 gene expression, fold change over untreated control (3 µM, 24 h): 1.19
- CYP3A7 gene expression, fold change over untreated control (3 µM, 24 h): 1.01
- CYP19A1 gene expression, fold change over untreated control (3 µM, 24 h): -1.03
- EGFR gene expression, fold change over untreated control (3 µM, 24 h): 1.00
- ENG gene expression, fold change over untreated control (3 µM, 24 h): 1.04
- ESRRA gene expression, fold change over untreated control (3 µM, 24 h): 1.00
- ESRRG gene expression, fold change over untreated control (3 µM, 24 h): -1.16
- GHR gene expression, fold change over untreated control (3 µM, 24 h): 1.15
- GPER1 gene expression, fold change over untreated control (3 µM, 24 h): -1.02
- HIF1A gene expression, fold change over untreated control (3 µM, 24 h): 1.00
- IGF2 gene expression, fold change over untreated control (3 µM, 24 h): 1.00
- IGFR1 gene expression, fold change over untreated control (3 µM, 24 h): -1.02
- IGFR2 gene expression, fold change over untreated control (3 µM, 24 h): 1.04
- IL6 gene expression, fold change over untreated control (3 µM, 24 h): -1.23
- MRP1 gene expression, fold change over untreated control (3 µM, 24 h): -1.05
- MRP2 gene expression, fold change over untreated control (3 µM, 24 h): 1.05
- MRP3 gene expression, fold change over untreated control (3 µM, 24 h): 1.07
- NFKB1 gene expression, fold change over untreated control (3 µM, 24 h): 1.03
- NFKB2 gene expression, fold change over untreated control (3 µM, 24 h): -1.07
- NR3C1 gene expression, fold change over untreated control (3 µM, 24 h): 1.00
- PGF gene expression, fold change over untreated control (3 µM, 24 h): 1.00
- PMM1 gene expression, fold change over untreated control (3 µM, 24 h): -1.05
- ROLYR2L gene expression, fold change over untreated control (3 µM, 24 h): 1.00
- SLC2A1 gene expression, fold change over untreated control (3 µM, 24 h): -1.04
- SOD1 gene expression, fold change over untreated control (3 µM, 24 h): 1.00
- TGFB1 gene expression, fold change over untreated control (3 µM, 24 h): -1.04
- VEGFA gene expression, fold change over untreated control (3 µM, 24 h): 1.04
- VEGFB gene expression, fold change over untreated control (3 µM, 24 h): 1.00
- WNT4 gene expression, fold change over untreated control (3 µM, 24 h): 1.08
- WNT6 gene expression, fold change over untreated control (3 µM, 24 h): -1.09
- WNT7B gene expression, fold change over untreated control (3 µM, 24 h): 1.07
- mTOR gene expression, fold change over untreated control (3 µM, 24 h): 1.00
- 11BHSD2 gene expression, fold change over untreated control (300 µM, 24 h): -1.01
- AHR gene expression, fold change over untreated control (300 µM, 24 h): -1.04
- AHRR gene expression, fold change over untreated control (300 µM, 24 h): 1.19
- CAT gene expression, fold change over untreated control (300 µM, 24 h): -1.05
- CGB5 gene expression, fold change over untreated control (300 µM, 24 h): 1.11
- COX2 gene expression, fold change over untreated control (300 µM, 24 h): 1.27
- CYP1A1 gene expression, fold change over untreated control (300 µM, 24 h): -1.16
- CYP2E1 gene expression, fold change over untreated control (300 µM, 24 h): 1.04
- CYP3A5 gene expression, fold change over untreated control (300 µM, 24 h): -1.83
- CYP3A7 gene expression, fold change over untreated control (300 µM, 24 h): -1.25
- CYP19A1 gene expression, fold change over untreated control (300 µM, 24 h): -1.29
- ENG gene expression, fold change over untreated control (300 µM, 24 h): -1.04
- ESRRA gene expression, fold change over untreated control (300 µM, 24 h): 1.19
- ESRRG gene expression, fold change over untreated control (300 µM, 24 h): 1.00
- GHR gene expression, fold change over untreated control (300 µM, 24 h): 1.11
- HIF1A gene expression, fold change over untreated control (300 µM, 24 h): 1.05
- IGFR1 gene expression, fold change over untreated control (300 µM, 24 h): -1.10
- IGFR2 gene expression, fold change over untreated control (300 µM, 24 h): -1.00
- IL6 gene expression, fold change over untreated control (300 µM, 24 h): -1.51
- MRP1 gene expression, fold change over untreated control (300 µM, 24 h): 1.14
- MRP2 gene expression, fold change over untreated control (300 µM, 24 h): 1.00
- MRP3 gene expression, fold change over untreated control (300 µM, 24 h): 1.44
- NFKB1 gene expression, fold change over untreated control (300 µM, 24 h): 1.03
- NFKB2 gene expression, fold change over untreated control (300 µM, 24 h): -1.04
- NR3C1 gene expression, fold change over untreated control (300 µM, 24 h): 1.00
- PGF gene expression, fold change over untreated control (300 µM, 24 h): -1.00
- PMM1 gene expression, fold change over untreated control (300 µM, 24 h): 1.05
- ROLYR2L gene expression, fold change over untreated control (300 µM, 24 h): 1.00
- SLC2A1 gene expression, fold change over untreated control (300 µM, 24 h): -1.13
- TGFB1 gene expression, fold change over untreated control (300 µM, 24 h): 1.00
- VEGFA gene expression, fold change over untreated control (300 µM, 24 h): 1.27
- VEGFB gene expression, fold change over untreated control (300 µM, 24 h): -1.01
- WNT4 gene expression, fold change over untreated control (300 µM, 24 h): 1.20
- WNT6 gene expression, fold change over untreated control (300 µM, 24 h): -1.09
- WNT7B gene expression, fold change over untreated control (300 µM, 24 h): -1.12
- mTOR gene expression, fold change over untreated control (300 µM, 24 h): 1.00
- number of genes with significantly altered expression (of 46) (300 µM, 24 h, FDR p < 0.1): 15 genes
- lowest concentration inducing significant dysregulated expression of placental genes (after 24 h of exposure): 3 µM
